The results in this text go back to BindingDB's records for doi:10.1021/jm00150a013 (1986).

The target in the assay is Chymotrypsinogen A (Bos taurus) (UniProt P00766). In words: Inhibitory activity against bovine Chymotrypsinogen expressed as inhibitory constant.

Turning to `CCCCc1c(C)oc(=O)c(CCCC)c1O`, the Ki was determined as 1350 µM.
